Data as given in ChEMBL document CHEMBL4411322 (J Med Chem, 2019).
Non-standard residues stand in square brackets, D forms with d. Residues, ends and D or L forms follow the SMILES beside them.

Columns and labels:
Integrin alpha-V/beta-8 = Integrin alpha-V/beta-8 (Homo sapiens, UniProt P06756+P26012); assay: Inhibition of LAP binding to human integrin alphavbeta8 receptor after 1 hr by solid-phase binding assay; type: protein-complex assay; conditions: read-out: IC50
Integrin alpha-V/beta-6 = Integrin alpha-V/beta-6 (Homo sapiens, UniProt P06756+P18564); assay: Inhibition of LAP binding to human integrin alphavbeta6 receptor after 1 hr by solid-phase binding assay; type: protein-complex assay; conditions: read-out: IC50
Integrin alpha-V/beta-6, sequence (P06756 31-889 limits assumed): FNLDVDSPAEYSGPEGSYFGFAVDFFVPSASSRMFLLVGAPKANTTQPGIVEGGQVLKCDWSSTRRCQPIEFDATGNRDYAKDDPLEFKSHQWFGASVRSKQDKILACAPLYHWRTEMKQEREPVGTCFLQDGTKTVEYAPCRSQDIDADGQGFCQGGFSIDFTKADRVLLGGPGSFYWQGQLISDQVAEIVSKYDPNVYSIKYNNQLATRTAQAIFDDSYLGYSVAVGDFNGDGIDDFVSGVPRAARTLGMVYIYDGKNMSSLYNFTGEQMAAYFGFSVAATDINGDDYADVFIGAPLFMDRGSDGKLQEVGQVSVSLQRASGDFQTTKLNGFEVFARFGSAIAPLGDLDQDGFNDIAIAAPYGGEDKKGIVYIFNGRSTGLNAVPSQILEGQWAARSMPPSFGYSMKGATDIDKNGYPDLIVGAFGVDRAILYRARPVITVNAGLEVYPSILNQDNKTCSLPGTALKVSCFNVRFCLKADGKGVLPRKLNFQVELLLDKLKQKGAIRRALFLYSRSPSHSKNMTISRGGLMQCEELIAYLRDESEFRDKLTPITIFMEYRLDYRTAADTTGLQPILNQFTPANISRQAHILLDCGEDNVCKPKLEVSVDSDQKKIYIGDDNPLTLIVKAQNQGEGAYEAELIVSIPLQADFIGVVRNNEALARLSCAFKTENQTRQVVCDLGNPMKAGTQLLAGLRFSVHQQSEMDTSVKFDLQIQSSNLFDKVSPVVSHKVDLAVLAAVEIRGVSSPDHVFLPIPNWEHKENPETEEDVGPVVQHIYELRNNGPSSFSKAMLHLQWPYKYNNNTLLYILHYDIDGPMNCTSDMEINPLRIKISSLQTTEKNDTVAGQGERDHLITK
Integrin alpha-V/beta-6, sequence (P06756 891-1048 limits assumed): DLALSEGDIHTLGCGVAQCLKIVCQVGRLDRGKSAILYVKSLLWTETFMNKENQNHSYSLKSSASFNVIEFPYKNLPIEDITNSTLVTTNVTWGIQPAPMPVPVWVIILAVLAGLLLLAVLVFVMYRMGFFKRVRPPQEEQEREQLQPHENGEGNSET
Integrin alpha-V/beta-6, sequence (P18564 22-788 limits assumed): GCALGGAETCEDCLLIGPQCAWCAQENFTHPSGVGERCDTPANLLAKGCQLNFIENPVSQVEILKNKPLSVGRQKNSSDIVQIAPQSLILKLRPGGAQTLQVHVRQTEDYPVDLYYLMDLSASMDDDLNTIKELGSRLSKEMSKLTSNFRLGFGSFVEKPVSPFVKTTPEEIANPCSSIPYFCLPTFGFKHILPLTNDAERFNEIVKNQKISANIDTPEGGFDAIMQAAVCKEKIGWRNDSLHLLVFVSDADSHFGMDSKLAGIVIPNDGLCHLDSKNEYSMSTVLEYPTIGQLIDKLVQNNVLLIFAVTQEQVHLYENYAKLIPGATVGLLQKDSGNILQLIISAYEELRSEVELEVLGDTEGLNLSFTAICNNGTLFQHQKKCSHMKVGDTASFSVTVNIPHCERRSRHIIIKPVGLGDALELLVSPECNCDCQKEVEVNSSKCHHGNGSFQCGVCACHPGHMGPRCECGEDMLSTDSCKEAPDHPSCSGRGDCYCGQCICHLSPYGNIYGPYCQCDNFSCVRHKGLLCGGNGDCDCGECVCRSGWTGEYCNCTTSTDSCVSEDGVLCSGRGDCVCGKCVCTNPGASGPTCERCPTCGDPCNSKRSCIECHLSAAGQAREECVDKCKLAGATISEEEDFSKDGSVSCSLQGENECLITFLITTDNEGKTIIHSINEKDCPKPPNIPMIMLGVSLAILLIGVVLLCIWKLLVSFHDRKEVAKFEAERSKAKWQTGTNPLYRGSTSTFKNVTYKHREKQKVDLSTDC

Homo sapiens = species: Homo sapiens; assay: Selectivity ratio of IC50 for human integrin alphavbeta6 receptor to IC50 for human integrin alphavbeta8 receptor

Integrin alpha-V/beta-8, sequence (P06756 31-889 limits assumed): as the sequence (P06756 31-889 limits assumed) above
Integrin alpha-V/beta-8, sequence (P06756 891-1048 limits assumed): as the sequence (P06756 891-1048 limits assumed) above
Integrin alpha-V/beta-8, sequence (P26012 43-769 limits assumed): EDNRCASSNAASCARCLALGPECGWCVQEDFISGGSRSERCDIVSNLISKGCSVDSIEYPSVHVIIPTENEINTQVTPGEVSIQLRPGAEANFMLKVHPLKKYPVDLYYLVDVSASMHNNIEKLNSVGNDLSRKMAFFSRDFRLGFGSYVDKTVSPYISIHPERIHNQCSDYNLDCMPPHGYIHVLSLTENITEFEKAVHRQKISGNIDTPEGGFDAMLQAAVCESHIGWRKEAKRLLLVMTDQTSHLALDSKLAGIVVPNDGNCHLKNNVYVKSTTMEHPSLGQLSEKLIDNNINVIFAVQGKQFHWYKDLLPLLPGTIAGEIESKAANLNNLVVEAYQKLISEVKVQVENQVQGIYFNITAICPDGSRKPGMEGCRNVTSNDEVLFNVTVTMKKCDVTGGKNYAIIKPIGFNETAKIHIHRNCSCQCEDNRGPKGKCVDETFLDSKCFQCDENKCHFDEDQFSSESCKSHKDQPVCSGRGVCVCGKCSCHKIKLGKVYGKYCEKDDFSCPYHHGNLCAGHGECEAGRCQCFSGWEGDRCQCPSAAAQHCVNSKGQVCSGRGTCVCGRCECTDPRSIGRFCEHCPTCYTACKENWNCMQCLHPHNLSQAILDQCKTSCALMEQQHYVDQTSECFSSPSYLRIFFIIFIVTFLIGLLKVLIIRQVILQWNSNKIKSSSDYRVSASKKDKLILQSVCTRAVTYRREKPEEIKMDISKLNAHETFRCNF

SMILES | IC50 (Integrin alpha-V/beta-8) [nM] | IC50 (Integrin alpha-V/beta-6) [nM] | Ratio IC50 (Homo sapiens)
CC(=O)NCCCC[C@@H]1C(=O)N2CCC[C@H]2C(=O)NCC(=O)N[C@@H](CC(C)C)C(=O)N[C@@H](CCCNC(=N)N)C(=O)NCC(=O)N[C@@H](CC(=O)O)C(=O)N[C@@H](CC(C)C)C(=O)N1C | 57 | 215 | 3.8
CC(C)C[C@@H]1NC(=O)[C@H](CC(=O)O)NC(=O)CNC(=O)[C@H](CCCNC(=N)N)NC(=O)CNC(=O)[C@H](C)NC(=O)[C@@H]2CCCN2C(=O)[C@H]2CCCN2C1=O | 15.9 | 42.4 | 2.7
CC(C)C[C@@H]1NC(=O)[C@@H]2CCCN2C(=O)[C@H]2CCCN2C(=O)[C@H](CC(C)C)NC(=O)[C@H](CC(=O)O)NC(=O)CNC(=O)[C@H](CCCNC(=N)N)NC(=O)[C@H](C)NC1=O | 114 | 420 | 3.7
CCNC(=N)NCCC[C@@H]1NC(=O)[C@H](CC(C)C)NC(=O)CNC(=O)[C@@H]2CCCN2C(=O)[C@H]2CCCN2C(=O)[C@H](CC(C)C)NC(=O)[C@H](CC(=O)O)NC(=O)CNC1=O | 38 | 769 | 20
CC(C)C[C@@H]1NC(=O)[C@H](C)NC(=O)[C@H](CCCCN)N(C)C(=O)[C@H]2CCCN2C(=O)[C@H](CC(C)C)NC(=O)[C@H](CC(=O)O)NC(=O)CNC(=O)[C@H](CCCNC(=N)N)NC1=O | 44 | 62 | 1.4
CC(C)C[C@@H]1NC(=O)[C@H](C)NC(=O)[C@@H]2CCCN2C(=O)[C@H]2CCCN2C(=O)[C@H](CC(C)C)NC(=O)[C@H](CC(=O)O)NC(=O)CNC(=O)[C@H](CCCNC(=N)N)NC(=O)[C@H](C)NC(=O)[C@H](C)NC1=O | 270 | 430 | 1.6
CC(C)C[C@@H]1NC(=O)[C@H](C)NC(=O)[C@@H]2CCCN2C(=O)[C@H]2CCCN2C(=O)[C@H](CC(C)C)NC(=O)[C@H](CC(=O)O)NC(=O)CNC(=O)[C@H](CCCNC(=N)N)NC1=O (cyclo(RGDL[dP]PAL)) | 1.31 | 31.8 | 24

The remaining compounds from weak to strong by IC50 (Integrin alpha-V/beta-8), led by results:

IC50 (Integrin alpha-V/beta-8) [nM] | IC50 (Integrin alpha-V/beta-6) [nM] | Ratio IC50 (Homo sapiens) | SMILES
127 | 720 | 5.7 | CC(C)C[C@@H]1NC(=O)[C@H](C)NC(=O)[C@H](C)NC(=O)[C@@H]2CCCN2C(=O)[C@H]2CCCN2C(=O)[C@H](CC(C)C)NC(=O)[C@H](CC(=O)O)NC(=O)[C@H]([C@@H](C)O)NC(=O)[C@H](CCCNC(=N)N)NC(=O)[C@H](C)NC1=O
59.4 | 112 | 1.9 | CC(C)C[C@@H]1NC(=O)[C@H](CC(=O)O)NC(=O)CNC(=O)[C@H](CCCNC(=N)N)NC(=O)[C@@H](C)NC(=O)[C@H](C)NC(=O)[C@@H]2CCCN2C(=O)[C@H]2CCCN2C1=O
12.1 | 39 | 3.2 | CC(C)C[C@@H]1NC(=O)[C@H](C)NC(=O)[C@@H]2CCCN2C(=O)[C@@H](CCCCN)N(C)C(=O)[C@H](CC(C)C)NC(=O)[C@H](CC(=O)O)NC(=O)CNC(=O)[C@H](CCCNC(=N)N)NC1=O
10.5 | 223 | 21 | CC(=O)NC1C[C@H]2C(=O)NCC(=O)N[C@@H](CC(C)C)C(=O)N[C@@H](CCCNC(=N)N)C(=O)NCC(=O)N[C@@H](CC(=O)O)C(=O)N[C@@H](CC(C)C)C(=O)N3CCC[C@@H]3C(=O)N2C1 (some centres not stated)
6.4 | 29.6 | 4.6 | CC(C)C[C@@H]1NC(=O)[C@H](CC(=O)O)NC(=O)CNC(=O)[C@H](CCCNC(=N)N)NC(=O)[C@H](c2ccccc2)NC(=O)[C@H](C)NC(=O)[C@@H]2CCCN2C(=O)[C@H]2CCCN2C1=O
5.8 | 369 | 64 | CC(C)C[C@@H]1NC(=O)[C@H](CC(=O)O)NC(=O)[C@H](CO)NC(=O)[C@H](CCCNC(=N)N)NC(=O)[C@H](Cc2ccccc2)NC(=O)[C@H](C)NC(=O)[C@@H]2CCCN2C(=O)[C@H]2CCCN2C1=O
3.73 | 73 | 20.1 | CC(C)C[C@@H]1NC(=O)[C@H](CC(=O)O)NC(=O)CNC(=O)[C@H](CCCNC(=N)N)NC(=O)[C@H](Cc2c[nH]c3ccccc23)NC(=O)[C@H](C)NC(=O)[C@@H]2CCCN2C(=O)[C@H]2CCCN2C1=O
